# Experimental data taken from patent publication US10105357B2, “Indication of antibiotic drugs for preparation of cancer inhibition pharmaceutical composition” (LAUNX BIOMEDICAL CO., LTD., priority 2014, dated 2018).
# Where a name gives a salt, the structure may show the parent alone. Read-outs that look alike come from different tables or passages of the source.
# Assays:
# Type in all cases: cell-based, human
# [1] = system: HL-60 (Acute Promyelocytic Leukemia); assay: Cell viability analysis, leukemia HL-60; conditions: Homo sapiens
# [2] = system: HepG2 (Hepatocellular Carcinoma); assay: Cell viability analysis, hepatic cancer HepG2; conditions: Homo sapiens
# [3] = system: MCF7 (Mammary Gland, Adenocarcinoma); assay: Cell viability analysis, breast cancer MCF7; conditions: Homo sapiens
# [4] = system: HI650 (Lung Adenocarcinoma); assay: Cell viability analysis, lung cancer HI650; conditions: Homo sapiens
# [5] = system: PC3 (p53−) (Prostate Adenocarcinoma); assay: Cell viability analysis, prostate cancer PC3; conditions: Homo sapiens
# [6] = system: AGS (Gastric Adenocarcinoma); assay: Cell viability analysis, gastric cancer AGS; conditions: Homo sapiens
# [7] = system: MKN-45 (Gastric Adenocarcinoma); assay: Cell viability analysis, gastric cancer MKN-45; conditions: Homo sapiens
# cancer cell lines = assay: Cell viability analysis (WST-1) on cancer cell lines; conditions: drug 10 μM, 72 hours, WST-1; Table 3
# [8] = system: LoVo (Colorectal Adenocarcinoma); assay: Cell viability analysis, colon cancer LoVo; conditions: Homo sapiens, LoVo
# [9] = system: HeLa (Cervix Adenocarcinoma); assay: Cell viability analysis, cervical cancer HeLa; conditions: Homo sapiens, HeLa
# [10] = system: A375 (Amelanotic Melanoma); assay: Cell viability analysis, skin cancer A375; conditions: Homo sapiens
# [11] = system: TSGH-8301 (Urinary Bladder Carcinoma); assay: Cell viability analysis, bladder cancer TSGH-8301; conditions: Homo sapiens
# [12] = system: A549 (Lung Adenocarcinoma); assay: Cell viability analysis, lung cancer A549; conditions: Homo sapiens
# [13] = HL-60, 72 h, read-out: cell viability (survival rate), HL-60, drug 10 μM, 72 hours, WST-1, OD450 nm
# [14] = HepG2, 72 h, read-out: cell viability (survival rate), HepG2, drug 10 μM, 72 hours, WST-1, OD450 nm
# [15] = MCF7, 72 h, read-out: cell viability (survival rate), MCF7, drug 10 μM, 72 hours, WST-1, OD450 nm
# [16] = NCI-H1650, 72 h, read-out: cell viability (survival rate), H1650, drug 10 μM, 72 hours, WST-1, OD450 nm
# [17] = 72 h, read-out: cell viability (survival rate), PC3, drug 10 μM, 72 hours, WST-1, OD450 nm
# [18] = 72 h, read-out: cell viability (survival rate), AGS, drug 10 μM, 72 hours, WST-1, OD450 nm
# [19] = MKN-45, 72 h, read-out: cell viability (survival rate), MKN-45, drug 10 μM, 72 hours, WST-1, OD450 nm
# [20] = 72 h, read-out: cell viability (survival rate), LoVo, drug 10 μM, 72 hours, WST-1, OD450 nm
# [21] = 72 h, read-out: cell viability (survival rate), HeLa, drug 10 μM, 72 hours, WST-1, OD450 nm
# [22] = A-375, 72 h, read-out: cell viability (survival rate), A375, drug 10 μM, 72 hours, WST-1, OD450 nm
# [23] = 72 h, read-out: cell viability (survival rate), TSGH, drug 10 μM, 72 hours, WST-1, OD450 nm
# [24] = A549, 72 h, read-out: cell viability (survival rate), A549, drug 10 μM, 72 hours, WST-1, OD450 nm
# [25] = HL-60, 72 h, drug 10 μM, 72 hours, WST-1, OD450 nm, read-out: cell viability (survival rate), HL-60
# [26] = HepG2, 72 h, drug 10 μM, 72 hours, WST-1, OD450 nm, read-out: cell viability (survival rate), HepG2
# [27] = MCF7, 72 h, drug 10 μM, 72 hours, WST-1, OD450 nm, read-out: cell viability (survival rate), MCF7
# [28] = NCI-H1650, 72 h, drug 10 μM, 72 hours, WST-1, OD450 nm, read-out: cell viability (survival rate), H1650
# [29] = 72 h, drug 10 μM, 72 hours, WST-1, OD450 nm, read-out: cell viability (survival rate), PC3
# [30] = 72 h, drug 10 μM, 72 hours, WST-1, OD450 nm, read-out: cell viability (survival rate), AGS
# [31] = MKN-45, 72 h, drug 10 μM, 72 hours, WST-1, OD450 nm, read-out: cell viability (survival rate), MKN-45
# [32] = 72 h, drug 10 μM, 72 hours, WST-1, OD450 nm, read-out: cell viability (survival rate), HeLa
# [33] = A-375, 72 h, drug 10 μM, 72 hours, WST-1, OD450 nm, read-out: cell viability (survival rate), A375
# [34] = 72 h, drug 10 μM, 72 hours, WST-1, OD450 nm, read-out: cell viability (survival rate), TSGH
# [35] = A549, 72 h, drug 10 μM, 72 hours, WST-1, OD450 nm, read-out: cell viability (survival rate), A549
SMILES,inhibition effect on different cancer cell lines (cancer cell lines),"viability at 10 µM [1, 13]","viability at 10 µM [2, 14]","viability at 10 µM [3, 15]","viability at 10 µM [4, 16]","viability at 10 µM [5, 17]","viability at 10 µM [6, 18]","viability at 10 µM [7, 19]","viability at 10 µM [8, 20]","viability at 10 µM [9, 21]","viability at 10 µM [10, 22]","viability at 10 µM [11, 23]","viability at 10 µM [12, 24]","viability at 10 µM [1, 25]","viability at 10 µM [2, 26]","viability at 10 µM [3, 27]","viability at 10 µM [4, 28]","viability at 10 µM [5, 29]","viability at 10 µM [6, 30]","viability at 10 µM [7, 31]",also measured
COc1cc(C)c(/C=C/C(C)=C/C=C/C(C)=C/C(=O)O)c(C)c1C [Acitretin],significant inhibition effect,–,–,–,–,–,–,–,–,–,–,–,–,–,–,–,–,–,–,–,"viability at 10 µM ([1]; HL-60, 72 h, read-out: cell viability (survival rate), HL-60): 96.7%; viability at 10 µM ([2]; HepG2, 72 h, read-out: cell viability (survival rate), HepG2): 72.6%; viability at 10 µM ([3]; MCF7, 72 h, read-out: cell viability (survival rate), MCF7): 119%; viability at 10 µM ([4]; NCI-H1650, 72 h, read-out: cell viability (survival rate), H1650): 43.8%; viability at 10 µM ([5]; 72 h, read-out: cell viability (survival rate), PC3): 92.5%; viability at 10 µM ([6]; 72 h, read-out: cell viability (survival rate), AGS): 68.1%; viability at 10 µM ([7]; MKN-45, 72 h, read-out: cell viability (survival rate), MKN-45): 78.5%; viability at 10 µM ([8]; 72 h, read-out: cell viability (survival rate), LoVo): 83.6%; viability at 10 µM ([9]; 72 h, read-out: cell viability (survival rate), HeLa): 52.7%; viability at 10 µM ([10]; A-375, 72 h, read-out: cell viability (survival rate), A375): 61.4%; viability at 10 µM ([11]; 72 h, read-out: cell viability (survival rate), TSGH): 127%; viability at 10 µM ([12]; A549, 72 h, read-out: cell viability (survival rate), A549): 69.1%"
Cc1cc(=O)n(-c2ccccc2)n1C [Antipyrine],significant inhibition effect,–,–,–,–,–,–,–,–,–,–,–,–,–,–,–,–,–,–,–,"viability at 10 µM ([1]; HL-60, drug 10 μM, 72 hours, WST-1, OD450 nm, read-out: cell viability (survival rate), HL-60): 102%; viability at 10 µM ([2]; HepG2, drug 10 μM, 72 hours, WST-1, OD450 nm, read-out: cell viability (survival rate), HepG2): 105%; viability at 10 µM ([3]; MCF7, drug 10 μM, 72 hours, WST-1, OD450 nm, read-out: cell viability (survival rate), MCF7): 61.3%; viability at 10 µM ([4]; NCI-H1650, drug 10 μM, 72 hours, WST-1, OD450 nm, read-out: cell viability (survival rate), H1650): 57.3%; viability at 10 µM ([5]; drug 10 μM, 72 hours, WST-1, OD450 nm, read-out: cell viability (survival rate), PC3): 76.8%; viability at 10 µM ([6]; drug 10 μM, 72 hours, WST-1, OD450 nm, read-out: cell viability (survival rate), AGS): 109%; viability at 10 µM ([7]; MKN-45, drug 10 μM, 72 hours, WST-1, OD450 nm, read-out: cell viability (survival rate), MKN-45): 109%; viability at 10 µM ([8]; drug 10 μM, 72 hours, WST-1, OD450 nm, read-out: cell viability (survival rate), LoVo): 97.1%; viability at 10 µM ([9]; drug 10 μM, 72 hours, WST-1, OD450 nm, read-out: cell viability (survival rate), HeLa): 76.8%; viability at 10 µM ([10]; A-375, drug 10 μM, 72 hours, WST-1, OD450 nm, read-out: cell viability (survival rate), A375): 77.9%; viability at 10 µM ([11]; drug 10 μM, 72 hours, WST-1, OD450 nm, read-out: cell viability (survival rate), TSGH): 90.1%; viability at 10 µM ([12]; A549, drug 10 μM, 72 hours, WST-1, OD450 nm, read-out: cell viability (survival rate), A549): 76.4%"
COc1cc(NS(=O)(=O)c2ccc(N)cc2)nc(OC)n1 [Sulphadimethoxine],significant inhibition effect,120%,90.3%,94.3%,83.1%,94%,99.3%,72%,70.8%,68.8%,76%,132%,100%,–,–,–,–,–,–,–,–
"Clc1ccccc1C(c1ccccc1)(c1ccccc1)n1ccnc1 [Clotrimazole (Canesten), Clotrimazole]",significant inhibition effect,106%,102%,56.8%,75.9%,69.3%,85.7%,53.9%,94.1%,90%,81.4%,50.8%,85.5%,–,–,–,–,–,–,–,–
[H]/N=C(/N)N[C@H]1[C@H](O)[C@@H](O)[C@H](O[C@@H]2O[C@@H](C)[C@](O)(C=O)[C@H]2O[C@@H]2O[C@@H](CO)[C@H](O)[C@@H](O)[C@@H]2NC)[C@@H](N/C(N)=N\[H])[C@@H]1O [Streptomycin sulfate],significant inhibition effect,93.3%,84.5%,72%,40.6%,59.1%,65.5%,68.7%,46.6%,88.9%,77.5%,23.3%,57.3%,–,–,–,–,–,–,–,–
"CCCc1cc(C(N)=S)ccn1 [Protionamide (Prothionamide), Protionamide]",significant inhibition effect,–,–,–,–,–,–,–,85.6%,–,–,–,–,97.6%,118%,51.2%,85%,45.2%,85.9%,77.6%,"viability at 10 µM [9, 32]: 97.5%; viability at 10 µM [10, 33]: 84.9%; viability at 10 µM [11, 34]: 103%; viability at 10 µM [12, 35]: 66.2%"
CCCCCCCCCCCC[N+](C)(C)CCOc1ccccc1 [Domiphen Bromide],significant inhibition effect,–,–,–,–,–,–,–,48.7%,–,–,–,–,30%,62.1%,31.3%,46.5%,38.9%,32.5%,44.4%,"viability at 10 µM [9, 32]: 38%; viability at 10 µM [10, 33]: 36.3%; viability at 10 µM [11, 34]: 37.3%; viability at 10 µM [12, 35]: 28.7%"
CC[C@H]1OC(=O)C[C@@H](O)[C@H](C)[C@@H](O[C@@H]2O[C@H](C)[C@@H](O)[C@H](N(C)C)[C@H]2O)[C@@H](CCN2C[C@H](C)C[C@H](C)C2)C[C@@H](C)C(=O)/C=C/C(C)=C/[C@@H]1CO[C@@H]1O[C@H](C)[C@@H](O)[C@@H](OC)[C@H]1OC [Tilmicosin],significant inhibition effect,–,–,–,–,–,–,–,83.8%,–,–,–,–,75%,92.1%,39.1%,72.7%,81.5%,102%,52.1%,"viability at 10 µM [9, 32]: 67%; viability at 10 µM [10, 33]: 54.7%; viability at 10 µM [11, 34]: 56.5%; viability at 10 µM [12, 35]: 53.5%"
Nc1nc(O)c2ncn(COC(CO)CO)c2n1 [Ganciclovir],significant inhibition effect,98.7%,109%,68.6%,97.3%,71.8%,106%,87%,99.9%,107%,94.8%,103%,104%,–,–,–,–,–,–,–,–
